Patent US20110166179A1, “ANTIBACTERIAL QUINOLINE DERIVATIVES” (priority 2007, published 2011)
Values after ≈ are worked out from the molar mass of the structure shown. Like-named read-outs stand apart in the source and are kept apart here. Each block holds one compound with its values, some of them ahead of it.

Tests used:
Assay type in all cases: cell-based
[1] = system: Staphylococcus aureus (ATCC29213); test: In-vitro anti-bacterial microtitre plate assay, IC90 determination, Staphylococcus aureus; conditions: for IC90: read-out: IC90 STA 29213
Protocol: (§1) D.3. In-Vitro Method for Testing Compounds for Anti-Bacterial Activity Against Various Non-Mycobacterial Strains […] The bacteria used in this study were grown overnight in flasks containing 100 ml Mueller-Hinton Broth (Becton Dickinson-cat. no. 275730) in sterile de-ionized water, with shaking, at 37° C. Stocks (0.5 ml/tube) were stored at -70° C. until use. Bacteria titrations were performed in microtiter plates to detect the TCID50, in which the TCID50 represents the dilution that gives rise to bacterial growth in 50% of inoculated cultures. In general, an inoculum level of approximately 100 TCID50 was used for susceptibility testing. Anti Bacterial Susceptibility Testing: IC90 Determination Microtitre Plate Assay […] Depending on the bacteria type, approximately 10 to 60 CFU per well of bacteria inoculum (100 TCID50), in a volume of 100 μl in 2.8× Mueller-Hinton broth medium, was added to the rows […]. The same volume of broth medium without inoculum was added to column 12 in row A to H. The cultures were incubated at 37° C. for 24 hours under a normal atmosphere (incubator with open air valve and continuous ventilation). At the end of incubation, one day after inoculation, the bacterial growth was quantitated fluorometrically. Therefore resazurin (0.6 mg/ml) was added in a volume of 20 μl to all wells 3 hours after inoculation, and the plates were re-incubated overnight. A change in colour from blue to pink indicated the growth of bacteria. The fluorescence was read in a computer-controlled fluorometer (Cytofluor Biosearch) at an excitation wavelength of 530 nm and an emission wavelength of 590 nm. The % growth inhibition achieved by the compounds was calculated according to standard methods.

[2] = system: Streptococcus pneumoniae (ATCC6305); test: In-vitro anti-bacterial microtitre plate assay, IC90 determination, Streptococcus pneumoniae; conditions: for IC90: read-out: IC90 SPN 6305
Protocol: as §1

[3] = system: M. Smegmatis (ATCC607); test: In-vitro anti-bacterial activity against strain M. Smegmatis ATCC607; conditions: for IC90: Mycolicibacterium smegmatis, read-out: IC90 MSM ATCC607
Protocol: D.2. In-Vitro Method for Testing Compounds for Anti-Bacterial Activity Against Strain M. Smegmatis ATCC607. Flat-bottom, sterile 96-well plastic microtiter plates were filled with 180 μl of sterile deionized water, supplemented with 0.25% BSA. […] Serial five-fold dilutions (45 μl in 180 μl) were made directly in the microtiter plates from column 2 to 11 using a customised robot system (Zymark Corp., Hopkinton, Mass.). Pipette tips were changed after every 3 dilutions to minimize pipetting errors with high hydrophobic compounds. […] Approximately 250 CFU per well of bacteria inoculum, in a volume of 100 μl in 2.8× Mueller-Hinton broth medium, was added to the rows […]. The same volume of broth medium without inoculum was added to column 12 in row A to H. The cultures were incubated at 37° C. for 48 hours in a humidified 5% CO2 atmosphere (incubator with open air valve and continuous ventilation). At the end of incubation, two days after inoculation, the bacterial growth was quantitated fluorometrically. Therefore Alamar Blue (10×) was added to all wells in a volume of 20 μl and plates were incubated for another 2 hours at […] The fluorescence was read in a computer-controlled fluorometer (Cytofluor, Biosearch) at an excitation wavelength of 530 nm and an emission wavelength of 590 nm (gain 30).

[4] = 90% inhibitory concentration for bacterial growth, Staphylococcus aureus ATCC29213, 24 hours, resazurin fluorescence
[5] = 90% inhibitory concentration for bacterial growth, Streptococcus pneumoniae ATCC6305, 24 hours, resazurin fluorescence
[6] = 90% inhibitory concentration for bacterial growth, M. Smegmatis ATCC607, 48 hours, Alamar Blue fluorescence

IC90 [1, 4]: 7.6 µg/mL (≈ 15.9 µM)
IC90 [2, 5]: 8.53 µg/mL (≈ 17.8 µM)
Structure (SMILES): COc1nc2ccc(Br)cc2cc1C(O)(CCCN(C)C)c1cccc2ccccc12 (stereo not drawn) [Compound 1]
IC90 [3, 6]: 1.91 µg/mL (≈ 3.98 µM)

Structure (SMILES): COc1nc2ccc(Br)cc2cc1C(O)(CCCCN(C)C)c1cccc2ccccc12 (stereo not drawn) [Compound 2]
IC90 STA 29213 [1, 4]: 39.20 µg/mL (≈ 79.4 µM)
IC90 SPN 6305 [2, 5]: 9.85 µg/mL (≈ 20 µM)
IC90 MSM ATCC607 [3, 6]: 7.82 µg/mL (≈ 15.8 µM)

Structure (SMILES): COc1nc2ccc(Br)cc2cc1C(O)(CCCCCN(C)C)c1cccc2ccccc12 (stereo not drawn) [Compound 3]
IC90 STA 29213 [1, 4]: 8.04 µg/mL (≈ 15.8 µM)
IC90 SPN 6305 [2, 5]: 10.13 µg/mL (≈ 20 µM)
IC90 MSM ATCC607 [3, 6]: 11.36 µg/mL (≈ 22.4 µM)

Structure (SMILES): COc1nc2ccc(-c3ccccc3)cc2cc1C(O)(CCCN(C)C)c1cccc2ccccc12 (stereo not drawn) [Compound 4]
IC90 ([1]; Staphylococcus aureus, ATCC29213, 24 h): 1.51 µg/mL (≈ 3.17 µM)
IC90 ([2]; Streptococcus pneumoniae, ATCC6305, 24 h): 1.51 µg/mL (≈ 3.17 µM)
IC90 ([3]; ATCC607, 48 h): 1.51 µg/mL (≈ 3.17 µM)

Structure (SMILES): COc1nc2ccc(-c3ccccc3)cc2cc1C(O)(CCCCN(C)C)c1cccc2ccccc12 (stereo not drawn) [Compound 5]
IC90 STA 29213 [1, 4]: 38.97 µg/mL (≈ 79.4 µM)
IC90 SPN 6305 [2, 5]: 49.07 µg/mL (≈ 100 µM)
IC90 MSM ATCC607 [3, 6]: 7.78 µg/mL (≈ 15.9 µM)

Structure (SMILES): COc1nc2ccc(-c3ccccc3)cc2cc1C(O)(CCCCCN(C)C)c1cccc2ccccc12 (stereo not drawn) [Compound 6]
IC90 STA 29213 [1, 4]: 8.00 µg/mL (≈ 15.9 µM)
IC90 SPN 6305 [2, 5]: 10.07 µg/mL (≈ 20 µM)
IC90 MSM ATCC607 [3, 6]: 6.35 µg/mL (≈ 12.6 µM)

Structure (SMILES): COc1ccccc1-c1ccc2nc(OC)c(C(O)(CCCN(C)C)c3cccc4ccccc34)cc2c1 (stereo not drawn) [Compound 7]
IC90 STA 29213 [1, 4]: 1.60 µg/mL (≈ 3.16 µM)
IC90 SPN 6305 [2, 5]: 1.8 µg/mL (≈ 3.55 µM)
IC90 MSM ATCC607 [3, 6]: 1.60 µg/mL (≈ 3.16 µM)

Structure (SMILES): COc1ccccc1-c1ccc2nc(OC)c(C(O)(CCCCN(C)C)c3cccc4ccccc34)cc2c1 (stereo not drawn) [Compound 8]
IC90 STA 29213 [1, 4]: 8.25 µg/mL (≈ 15.8 µM)
IC90 SPN 6305 [2, 5]: 10.39 µg/mL (≈ 20 µM)
IC90 MSM ATCC607 [3, 6]: 6.55 µg/mL (≈ 12.6 µM)

Structure (SMILES): COc1ccccc1-c1ccc2nc(OC)c(C(O)(CCCCCN(C)C)c3cccc4ccccc34)cc2c1 (stereo not drawn) [Compound 9]
IC90 STA 29213 [1, 4]: 8.47 µg/mL (≈ 15.8 µM)
IC90 SPN 6305 [2, 5]: 8.47 µg/mL (≈ 15.8 µM)
IC90 MSM ATCC607 [3, 6]: 8.47 µg/mL (≈ 15.8 µM)

Structure (SMILES): COc1nc2ccc(-c3ccoc3)cc2cc1C(O)(CCCN(C)C)c1cccc2ccccc12 (stereo not drawn) [Compound 10]
IC90 STA 29213 [1, 4]: 1.66 µg/mL (≈ 3.56 µM)
IC90 SPN 6305 [2, 5]: 3.30 µg/mL (≈ 7.07 µM)
IC90 MSM ATCC607 [3, 6]: 1.48 µg/mL (≈ 3.17 µM)

Structure (SMILES): COc1nc2ccc(-c3ccoc3)cc2cc1C(O)(CCCCN(C)C)c1cccc2ccccc12 (stereo not drawn) [Compound 11]
IC90 STA 29213 [1, 4]: 7.62 µg/mL (≈ 15.9 µM)
IC90 SPN 6305 [2, 5]: 9.59 µg/mL (≈ 20 µM)
IC90 MSM ATCC607 [3, 6]: 7.62 µg/mL (≈ 15.9 µM)

Structure (SMILES): COc1nc2ccc(-c3ccoc3)cc2cc1C(O)(CCCCCN(C)C)c1cccc2ccccc12 (stereo not drawn) [Compound 12]
IC90 STA 29213 [1, 4]: 1.56 µg/mL (≈ 3.15 µM)
IC90 SPN 6305 [2, 5]: 1.76 µg/mL (≈ 3.56 µM)
IC90 MSM ATCC607 [3, 6]: 1.56 µg/mL (≈ 3.15 µM)

Structure (SMILES): COc1nc2ccc(-c3cccs3)cc2cc1C(O)(CCCN(C)C)c1cccc2ccccc12 (stereo not drawn) [Compound 13]
IC90 STA 29213 [1, 4]: 1.53 µg/mL (≈ 3.17 µM)
IC90 SPN 6305 [2, 5]: 1.71 µg/mL (≈ 3.54 µM)
IC90 MSM ATCC607 [3, 6]: 1.53 µg/mL (≈ 3.17 µM)

Structure (SMILES): COc1nc2ccc(-c3cccs3)cc2cc1C(O)(CCCCN(C)C)c1cccc2ccccc12 (stereo not drawn) [Compound 14]
IC90 STA 29213 [1, 4]: 39.45 µg/mL (≈ 79.4 µM)
IC90 SPN 6305 [2, 5]: 49.67 µg/mL (≈ 100 µM)
IC90 MSM ATCC607 [3, 6]: 15.71 µg/mL (≈ 31.6 µM)

Structure (SMILES): COc1nc2ccc(-c3cccs3)cc2cc1C(O)(CCCCCN(C)C)c1cccc2ccccc12 (stereo not drawn) [Compound 15]
IC90 STA 29213 [1, 4]: 51.07 µg/mL (≈ 100 µM)
IC90 SPN 6305 [2, 5]: 51.07 µg/mL (≈ 100 µM)
IC90 MSM ATCC607 [3, 6]: 45.52 µg/mL (≈ 89.1 µM)

Structure (SMILES): COc1nc2ccc(-c3cccnc3)cc2cc1C(O)(CCCN(C)C)c1cccc2ccccc12 (stereo not drawn) [Compound 16]
IC90 STA 29213 [1, 4]: 7.57 µg/mL (≈ 15.8 µM)
IC90 SPN 6305 [2, 5]: 7.57 µg/mL (≈ 15.8 µM)
IC90 MSM ATCC607 [3, 6]: 1.51 µg/mL (≈ 3.16 µM)

Structure (SMILES): COc1nc2ccc(-c3cccnc3)cc2cc1C(O)(CCCCN(C)C)c1cccc2ccccc12 (stereo not drawn) [Compound 17]
IC90 STA 29213 [1, 4]: 49.16 µg/mL (≈ 100 µM)
IC90 SPN 6305 [2, 5]: 49.16 µg/mL (≈ 100 µM)
IC90 MSM ATCC607 [3, 6]: 49.16 µg/mL (≈ 100 µM)

Structure (SMILES): COc1nc2ccc(-c3cccnc3)cc2cc1C(O)(CCCCCN(C)C)c1cccc2ccccc12 (stereo not drawn) [Compound 18]
IC90 STA 29213 [1, 4]: 8.01 µg/mL (≈ 15.8 µM)
IC90 SPN 6305 [2, 5]: 8.99 µg/mL (≈ 17.8 µM)
IC90 MSM ATCC607 [3, 6]: 8.01 µg/mL (≈ 15.8 µM)

Structure (SMILES): COc1nc2ccc(-c3cc4ccccc4o3)cc2cc1C(O)(CCCN(C)C)c1cccc2ccccc12 (stereo not drawn) [Compound 19]
IC90 STA 29213 [1, 4]: 3.66 µg/mL (≈ 7.08 µM)
IC90 SPN 6305 [2, 5]: 8.19 µg/mL (≈ 15.9 µM)
IC90 MSM ATCC607 [3, 6]: 3.26 µg/mL (≈ 6.31 µM)

Structure (SMILES): COc1nc2ccc(-c3cc4ccccc4o3)cc2cc1C(O)(CCCCCN(C)C)c1cccc2ccccc12 (stereo not drawn) [Compound 20]
IC90 STA 29213 [1, 4]: 1.72 µg/mL (≈ 3.16 µM)
IC90 SPN 6305 [2, 5]: 1.72 µg/mL (≈ 3.16 µM)
IC90 MSM ATCC607 [3, 6]: 1.72 µg/mL (≈ 3.16 µM)
